Patent US12723024B2 (priority 2021, dated 2026)
Where two headings read alike, the source gives them in different places.

What was measured:
[1] = Salt screening (slurry crystallization); type: physicochemical; set-up: key to Salt screening result: (+) shows that a crystalline salt was formed; (−) physical mixtures; details: for Polymorph obtained in salt screening: XRPD; for Salt screening result: slurry 50° C. then 25° C.
Procedure: About 45 mg was added to a suitable solvent and different equivalents of acids were added under stirring at 50° C. for about 2 hours and then at 25° C. for at least 32 hours. Ethanol, acetone, and ACN were used as screening solvents. When no precipitation was obtained or only a few solids were obtained, the solutions were placed at 5° C. for crystallization.
(§1) Obtained suspensions were taken out and centrifuged. Solids obtained was analysed by XRPD. Salts with high or medium crystallinity were further characterized (see Table 5).

[2] = Crystallinity by XRPD; type: physicochemical; details: large scale batch
Procedure: as §1
(§2) According to the salt screening results (see Table 4), totally 19 potential salt hits were identified. All the potential salt hits were further investigated by Differential Scanning Calorimetry (DSC), Thermogravimetric analysis (TGA), H-NMR, Ion chromatography (IC), Karl Fischer titration (KF), and Polarized Light Microscopy (PLM) to confirm their identity and evaluate their physicochemical properties as shown in Table 5 below.

[3] = Thermogravimetric analysis (TGA) weight loss; type: physicochemical; details: salt screening sample, at the temperature given (80-200° C.)
Text: as §2

[4] = Hygroscopicity (water uptake) of salt hits; type: physicochemical; details: salt screening sample
Text: as §2

[5] = Dynamic vapor sorption (DVS) test at 25° C.; type: physicochemical; details: for Desorp. (%) / Sorp. (%): cycle 40-0-95-0-40% RH
[6] = ground manually with mortar and pestle for 5 min; XRPD
Procedure: Potential change of polymorph form and degree of crystallinity were evaluated by XRPD.

[7] = wetted with water or ethanol, ground, dried 10 min; XRPD
Procedure: Wet samples were ground gently with a mortar and pestle. Post granulation samples were dried under ambient condition for 10 min. Potential change of polymorph form and degree of crystallinity were evaluated by XRPD.

[8] = Thermogravimetric analysis (TGA) weight loss; type: physicochemical; details: large scale batch, at the temperature printed in the same cell (100-170° C.)
[9] = listed as succinate salt Polymorph A

COc1cc(C(F)(F)F)c(OC)cc1[C@@H]1CCCNC1.O=C(O)CCC(=O)O [Succinate salt Polymorph A (anhydrate), succinic acid salt of (S)-3-(2,5-dimethoxy-4-(trifluoromethyl)phenyl)piperidine]
Polymorph obtained in salt screening ([1]; ACN): Polymorph A
Salt screening result ([1]; ACN): +
Polymorph obtained in salt screening ([1]; Acetone): Polymorph A
Salt screening result ([1]; Acetone): +
Polymorph obtained in salt screening ([1]; EtOH): Polymorph A
Salt screening result ([1]; EtOH): +
Crystallinity [2]: High
Crystallinity [2, 9]: high crystallinity
Weight loss (%) [3]: 2.1%
Hygroscopicity (water uptake % w/w) [4]: (~0.7%) % w/w
Desorp. (%) ([5]; 0% RH, 25° C.): 0.00%
Sorp. (%) ([5]; 0% RH, 25° C.): 0.06%
Desorp. (%) ([5]; 10% RH, 25° C.): 0.01%
Sorp. (%) ([5]; 10% RH, 25° C.): 0.06%
Desorp. (%) ([5]; 20% RH, 25° C.): 0.01%
Sorp. (%) ([5]; 20% RH, 25° C.): 0.07%
Water absorbed from 40% RH to 95% RH ([5]; 25° C.): about 0.21%
Desorp. (%) ([5]; 30% RH, 25° C.): 0.02%
Sorp. (%) ([5]; 30% RH, 25° C.): 0.07%
Desorp. (%) ([5]; 40% RH, 25° C.): 0.02%
Sorp. (%) ([5]; 40% RH, 25° C.): 0.07%
Desorp. (%) ([5]; 50% RH, 25° C.): 0.02%
Sorp. (%) ([5]; 50% RH, 25° C.): 0.09%
Desorp. (%) ([5]; 60% RH, 25° C.): 0.03%
Sorp. (%) ([5]; 60% RH, 25° C.): 0.08%
Desorp. (%) ([5]; 70% RH, 25° C.): 0.10%
Sorp. (%) ([5]; 70% RH, 25° C.): 0.09%
Desorp. (%) ([5]; 80% RH, 25° C.): 0.11%
Sorp. (%) ([5]; 80% RH, 25° C.): 0.10%
Desorp. (%) ([5]; 90% RH, 25° C.): 0.16%
Sorp. (%) ([5]; 90% RH, 25° C.): 0.14%
Desorp. (%) ([5]; 95% RH, 25° C.): 0.29%
Sorp. (%) ([5]; 95% RH, 25° C.): 0.29%
XRPD after DVS test ([5]; DVS at 25° C.): No form changes
Hygroscopicity ([5]; DVS at 25° C., grade in words): non-hygroscopic
Change of polymorph form and degree of crystallinity [6]: No change in polymorph form and crystallinity was observed
Change of polymorph form and degree of crystallinity [7]: No change in polymorph form and crystallinity was observed
Weight loss (%) at Temperature (° C.) [8]: 0.2 at %
Weight loss (%) at Temperature (° C.) [8, 9]: about 0.2%
